Results from publication PMC5218480 (PLoS ONE, 2017).

Tested on: MV-4-11 cells
Experiment: Gene expression microarray analysis (Affymetrix PrimeView) and GSEA
Assay type: cell-based, human
Set-up: RFU PODN (11730768_x_at) / Fold change /veh PODN (11730768_x_at) / RFU LINC00158 (11744669_a_at) / Fold change /veh LINC00158 (11744669_a_at) / RFU DUSP10 (11751237_a_at) / Fold change /veh DUSP10 (11751237_a_at) / RFU ID3 (11757404_x_at) / Fold change /veh ID3 (11757404_x_at) / RFU PLEKHG5 (11737974_s_at) / Fold change /veh PLEKHG5 (11737974_s_at) / RFU LRRC4B (11730491_at) / Fold change /veh LRRC4B (11730491_at) / RFU GIMAP4 (11747438_a_at) / Fold change /veh GIMAP4 (11747438_a_at) / RFU KRT8 (11758183_x_at) / Fold change /veh KRT8 (11758183_x_at) / RFU CNN1 (11734310_a_at) / Fold change /veh CNN1 (11734310_a_at) / RFU VPS37D (11726825_at) / Fold change /veh VPS37D (11726825_at) / RFU C10orf10 (11716522_x_at) / Fold change /veh C10orf10 (11716522_x_at) / RFU KIR2DL2 /// KIR2DL4 /// KIR2DL5A /// KIR2DL5B /// KIR2DS1 /// KIR2DS2 /// KIR2DS3 /// KIR2DS4 /// KIR3DL3 /// KIR3DL3 /// KIR3DS1 (11738374_at) / Fold change /veh KIR2DL2 /// KIR2DL4 /// KIR2DL5A /// KIR2DL5B /// KIR2DS1 /// KIR2DS2 /// KIR2DS3 /// KIR2DS4 /// KIR3DL3 /// KIR3DL3 /// KIR3DS1 (11738374_at) / RFU C1QL1 (11718748_at) / Fold change /veh C1QL1 (11718748_at) / RFU TMPRSS4 (11747572_a_at) / Fold change /veh TMPRSS4 (11747572_a_at) / RFU HAMP (11756126_x_at) / Fold change /veh HAMP (11756126_x_at) / RFU RNFT2 (11725882_a_at) / Fold change /veh RNFT2 (11725882_a_at) / RFU NR4A2 (11747474_a_at) / Fold change /veh NR4A2 (11747474_a_at) / RFU ABCC12 (11746883_a_at) / Fold change /veh ABCC12 (11746883_a_at) / RFU TMEM136 (11760407_x_at) / Fold change /veh TMEM136 (11760407_x_at) / RFU CLDN22 /// WWC2 (11732394_at) / Fold change /veh CLDN22 /// WWC2 (11732394_at) / RFU HLA-DPB1 (11760878_x_at) / Fold change /veh HLA-DPB1 (11760878_x_at) / RFU SPINT1 (11716480_a_at) / Fold change /veh SPINT1 (11716480_a_at) / RFU GAP43 (11754022_s_at) / Fold change /veh GAP43 (11754022_s_at) / RFU A4GNT (11735810_at) / Fold change /veh A4GNT (11735810_at) / RFU PRB3 (11715151_x_at) / Fold change /veh PRB3 (11715151_x_at) / RFU TUBB4B (11761932_at) / Fold change /veh TUBB4B (11761932_at) / RFU CAPN14 (11732068_a_at) / Fold change /veh CAPN14 (11732068_a_at) / RFU TMCC2 (11721928_a_at) / Fold change /veh TMCC2 (11721928_a_at) / RFU IRGQ (11745062_a_at) / Fold change /veh IRGQ (11745062_a_at) / RFU FAM174B (11720279_a_at) / Fold change /veh FAM174B (11720279_a_at) / RFU TMPRSS4 (11748680_a_at) / Fold change /veh TMPRSS4 (11748680_a_at) / RFU FAM212B (11763350_a_at) / Fold change /veh FAM212B (11763350_a_at) / RFU PLEKHG5 (11743358_a_at) / Fold change /veh PLEKHG5 (11743358_a_at) / RFU ZSCAN30 (11745921_a_at) / Fold change /veh ZSCAN30 (11745921_a_at) / RFU CMKLR1 (11741424_a_at) / Fold change /veh CMKLR1 (11741424_a_at) / RFU LOC101060620 /// MAPK8IP1 (11723275_at) / Fold change /veh LOC101060620 /// MAPK8IP1 (11723275_at) / RFU SPTSSB (11747773_x_at) / Fold change /veh SPTSSB (11747773_x_at) / RFU PRSS12 (11739890_at) / Fold change /veh PRSS12 (11739890_at) / RFU BIN1 (11741810_x_at) / Fold change /veh BIN1 (11741810_x_at) / RFU WNT11 (11732464_a_at) / Fold change /veh WNT11 (11732464_a_at) / RFU C10orf10 (11716521_a_at) / Fold change /veh C10orf10 (11716521_a_at) / RFU C5orf56 (11738089_at) / Fold change /veh C5orf56 (11738089_at) / RFU CYB561 (11721691_x_at) / Fold change /veh CYB561 (11721691_x_at) / RFU ANKRD19P (11752326_a_at) / Fold change /veh ANKRD19P (11752326_a_at) / RFU OR2T12 /// OR2T33 /// OR2T8 (11738714_s_at) / Fold change /veh OR2T12 /// OR2T33 /// OR2T8 (11738714_s_at) / RFU VCAN (11748164_a_at) / Fold change /veh VCAN (11748164_a_at) / RFU JSRP1 (11732532_at) / Fold change /veh JSRP1 (11732532_at) / RFU KRTAP10-11 (11738290_x_at) / Fold change /veh KRTAP10-11 (11738290_x_at) / RFU MYO3A (11730013_a_at) / Fold change /veh MYO3A (11730013_a_at) / RFU EBF3 (11725865_a_at) / Fold change /veh EBF3 (11725865_a_at) / RFU CAMK2N1 (11719241_x_at) / Fold change /veh CAMK2N1 (11719241_x_at) / RFU C5orf56 (11738088_a_at) / Fold change /veh C5orf56 (11738088_a_at) / RFU OLFML3 (11715873_a_at) / Fold change /veh OLFML3 (11715873_a_at) / RFU LOC100653217 /// NTM (11731650_a_at) / Fold change /veh LOC100653217 /// NTM (11731650_a_at) / RFU MAPK11 (11762145_a_at) / Fold change /veh MAPK11 (11762145_a_at) / RFU FIZ1 (11724087_x_at) / Fold change /veh FIZ1 (11724087_x_at) / RFU OASL (11726364_x_at) / Fold change /veh OASL (11726364_x_at) / RFU SOX15 (11748057_x_at) / Fold change /veh SOX15 (11748057_x_at) / RFU CD79A (11719716_a_at) / Fold change /veh CD79A (11719716_a_at) / RFU HIST1H1D (11736915_at) / Fold change /veh HIST1H1D (11736915_at) / RFU CASKIN2 (11723855_a_at) / Fold change /veh CASKIN2 (11723855_a_at) / RFU LOC730098 (11760151_x_at) / Fold change /veh LOC730098 (11760151_x_at) / RFU OR4N2 (11742367_at) / Fold change /veh OR4N2 (11742367_at) / RFU PRRT2 (11749266_a_at) / Fold change /veh PRRT2 (11749266_a_at) / RFU SNX32 (11753110_a_at) / Fold change /veh SNX32 (11753110_a_at) / RFU CDHR5 (11726645_a_at) / Fold change /veh CDHR5 (11726645_a_at) / RFU RCAN1 (11760418_a_at) / Fold change /veh RCAN1 (11760418_a_at) / RFU FAM167A (11723789_a_at) / Fold change /veh FAM167A (11723789_a_at) / RFU FAM26E (11764081_at) / Fold change /veh FAM26E (11764081_at) / RFU ISYNA1 (11749810_s_at) / Fold change /veh ISYNA1 (11749810_s_at) / RFU ACY1 (11761880_at) / Fold change /veh ACY1 (11761880_at) / RFU 11764098_at / Fold change /veh 11764098_at / RFU SAMD14 (11745864_x_at) / Fold change /veh SAMD14 (11745864_x_at) / RFU NPB (11741838_a_at) / Fold change /veh NPB (11741838_a_at) / RFU TMPRSS6 (11731388_a_at) / Fold change /veh TMPRSS6 (11731388_a_at) / RFU KRTAP10-2 (11738614_at) / Fold change /veh KRTAP10-2 (11738614_at) / RFU ARHGAP8 /// PRR5-ARHGAP8 (11727945_x_at) / Fold change /veh ARHGAP8 /// PRR5-ARHGAP8 (11727945_x_at) / RFU KRTAP5-7 /// NADSYN1 (11734609_at) / Fold change /veh KRTAP5-7 /// NADSYN1 (11734609_at) / RFU RASL12 (11751679_a_at) / Fold change /veh RASL12 (11751679_a_at) / RFU CDKN2B (11736163_a_at) / Fold change /veh CDKN2B (11736163_a_at) / RFU PRF1 (11729649_at) / Fold change /veh PRF1 (11729649_at) / RFU, ZNF638 /// ZNF638-IT1 / Fold change vs veh, ZNF638 /// ZNF638-IT1 / RFU, PANK3 / Fold change vs veh, PANK3 / RFU, SH3YL1 / Fold change vs veh, SH3YL1 / RFU, ZEB2 / Fold change vs veh, ZEB2 / RFU, NRIP1 / Fold change vs veh, NRIP1 / RFU, PTTG1IP / Fold change vs veh, PTTG1IP / RFU, CAPN2 / Fold change vs veh, CAPN2 / RFU, MED14 / Fold change vs veh, MED14 / RFU, SNORA58 / Fold change vs veh, SNORA58 / RFU, C1orf63 / Fold change vs veh, C1orf63 / RFU, LRRFIP1 / Fold change vs veh, LRRFIP1 / RFU, NDUFAF7 / Fold change vs veh, NDUFAF7 / RFU, SLC12A2 / Fold change vs veh, SLC12A2 / RFU, IBTK / Fold change vs veh, IBTK / RFU, ESF1 / Fold change vs veh, ESF1 / Fold change vs veh, TMEM50B / RFU, TAOK1 / Fold change vs veh, TAOK1 / RFU, ACBD3 / Fold change vs veh, ACBD3 / RFU, TMA16 / Fold change vs veh, TMA16 / RFU, RWDD3 / Fold change vs veh, RWDD3 / RFU, BCAT1 / Fold change vs veh, BCAT1 / RFU, EDEM3 / Fold change vs veh, EDEM3 / RFU, TMEM33 / Fold change vs veh, TMEM33 / RFU, WDR75 / Fold change vs veh, WDR75 / RFU, AHCTF1 / Fold change vs veh, AHCTF1 / RFU, TFRC / Fold change vs veh, TFRC / RFU, ZDHHC17 / Fold change vs veh, ZDHHC17 / RFU, NOM1 / Fold change vs veh, NOM1 / RFU, ARL8B / Fold change vs veh, ARL8B / RFU, ZBTB11 / Fold change vs veh, ZBTB11 / RFU, TAMM41 / Fold change vs veh, TAMM41 / RFU, KIAA1704 /// LOC100996395 / Fold change vs veh, KIAA1704 /// LOC100996395 / RFU, ING1 / Fold change vs veh, ING1 / RFU, TRMT61B / Fold change vs veh, TRMT61B / RFU, FUBP3 / Fold change vs veh, FUBP3 / RFU, TP53 / Fold change vs veh, TP53 / RFU, TNKS2 / Fold change vs veh, TNKS2 / RFU, ZFP14 / Fold change vs veh, ZFP14 / RFU, ACTR2 / Fold change vs veh, ACTR2 / RFU, PPP3R1 / Fold change vs veh, PPP3R1 / RFU, PIK3R1 / Fold change vs veh, PIK3R1 / RFU, HNRNPA1 / Fold change vs veh, HNRNPA1 / RFU, RNF170 / Fold change vs veh, RNF170 / RFU, ZNF28 / Fold change vs veh, ZNF28 / RFU, RNGTT / Fold change vs veh, RNGTT / RFU, OGT / Fold change vs veh, OGT / RFU, BRD1 / Fold change vs veh, BRD1 / RFU, MARS / Fold change vs veh, MARS / RFU, ZNF655 / Fold change vs veh, ZNF655 / RFU, FAHD1 / Fold change vs veh, FAHD1 / RFU, BDP1 / Fold change vs veh, BDP1 / RFU, LRRCC1 / Fold change vs veh, LRRCC1 / RFU, ARID1A / Fold change vs veh, ARID1A / RFU, ZNF146 / Fold change vs veh, ZNF146 / RFU, ZNF330 / Fold change vs veh, ZNF330 / RFU, GPN3 / Fold change vs veh, GPN3 / RFU, C9orf123 / Fold change vs veh, C9orf123 / RFU, N4BP2L2 / Fold change vs veh, N4BP2L2 / RFU, ARFIP1 / Fold change vs veh, ARFIP1 / RFU, FAM179B / Fold change vs veh, FAM179B / RFU, BCL10 / Fold change vs veh, BCL10 / RFU, UHRF1BP1L / Fold change vs veh, UHRF1BP1L / RFU, BET1 / Fold change vs veh, BET1 / RFU, CNOT2 / Fold change vs veh, CNOT2 / RFU, ZNF268 / Fold change vs veh, ZNF268 / Fold change vs veh, ZNF507 / RFU, DGCR2 / Fold change vs veh, DGCR2 / RFU, WDSUB1 / Fold change vs veh, WDSUB1 / Fold change vs veh, HSP90B1 /// MIR3652 / RFU, ADSS / Fold change vs veh, ADSS / RFU, GK / Fold change vs veh, GK / RFU, ZNF148 / Fold change vs veh, ZNF148 / RFU, TAF9 / Fold change vs veh, TAF9 / RFU, SLC1A5 / Fold change vs veh, SLC1A5 / RFU, SLMO2 / Fold change vs veh, SLMO2 / RFU, ABCC4 / Fold change vs veh, ABCC4 / RFU, LOC101060439 /// RAP1B / Fold change vs veh, LOC101060439 /// RAP1B / RFU, RFX7 / Fold change vs veh, RFX7 / RFU, GTPBP10 / Fold change vs veh, GTPBP10 / RFU, CNEP1R1 / Fold change vs veh, CNEP1R1 / RFU, BIVM-ERCC5 /// ERCC5 / Fold change vs veh, BIVM-ERCC5 /// ERCC5 / RFU, ILF3 / Fold change vs veh, ILF3 / RFU 11762660_at / Fold change /veh 11762660_at / RFU VCAN (11757783_s_at) / Fold change /veh VCAN (11757783_s_at) / RFU DDX43 (11728927_at) / Fold change /veh DDX43 (11728927_at) / RFU KRT8 (11758188_x_at) / Fold change /veh KRT8 (11758188_x_at) / RFU NKD1 (11759106_at) / Fold change /veh NKD1 (11759106_at) / RFU SRD5A1 (11742802_a_at) / Fold change /veh SRD5A1 (11742802_a_at) / RFU TPSAB1 /// TPSB2 (11721975_s_at) / Fold change /veh TPSAB1 /// TPSB2 (11721975_s_at) / RFU GSTM3 (11746129_a_at) / Fold change /veh GSTM3 (11746129_a_at) / RFU IL23R (11737362_x_at) / Fold change /veh IL23R (11737362_x_at) / RFU TMEM51 (11727254_a_at) / Fold change /veh TMEM51 (11727254_a_at) / RFU PIWIL2 (11732686_x_at) / Fold change /veh PIWIL2 (11732686_x_at) / RFU ORM1 (11744905_x_at) / Fold change /veh ORM1 (11744905_x_at) / RFU CCDC152 (11743942_at) / Fold change /veh CCDC152 (11743942_at) / RFU ECM1 (11717891_a_at) / Fold change /veh ECM1 (11717891_a_at) / RFU IL23R (11748794_a_at) / Fold change /veh IL23R (11748794_a_at) / RFU TNFAIP8L3 (11732012_x_at) / Fold change /veh TNFAIP8L3 (11732012_x_at) / RFU MBOAT4 (11741988_at) / Fold change /veh MBOAT4 (11741988_at) / RFU 11764193_at / Fold change /veh 11764193_at / RFU TMEM53 (11763286_at) / Fold change /veh TMEM53 (11763286_at) / RFU MAGEB2 (11727129_at) / Fold change /veh MAGEB2 (11727129_at) / RFU TMEM200A (11744735_a_at) / Fold change /veh TMEM200A (11744735_a_at) / RFU CCDC152 (11751479_a_at) / Fold change /veh CCDC152 (11751479_a_at) / RFU FAM211A (11726209_a_at) / Fold change /veh FAM211A (11726209_a_at) / RFU RGS16 (11746705_a_at) / Fold change /veh RGS16 (11746705_a_at) / RFU VCAN (11755009_s_at) / Fold change /veh VCAN (11755009_s_at) / RFU RHOB (11743442_s_at) / Fold change /veh RHOB (11743442_s_at) / RFU RGS16 (11720943_a_at) / Fold change /veh RGS16 (11720943_a_at) / RFU RGS16 (11720944_at) / Fold change /veh RGS16 (11720944_at) / RFU, VPS4B / Fold change vs veh, VPS4B / RFU, CREB1 / Fold change vs veh, CREB1 / RFU, DNAJC13 / Fold change vs veh, DNAJC13 / RFU, GNAQ / Fold change vs veh, GNAQ / RFU, CDK5R1 / Fold change vs veh, CDK5R1 / RFU, ZRANB3 / Fold change vs veh, ZRANB3 / RFU, CUL4A / Fold change vs veh, CUL4A / RFU, CCNY / Fold change vs veh, CCNY / RFU, UFL1 / Fold change vs veh, UFL1 / RFU, COG3 / Fold change vs veh, COG3 / RFU, DIAPH2 / Fold change vs veh, DIAPH2 / RFU, SKA2 / Fold change vs veh, SKA2 / RFU, AFF3 / Fold change vs veh, AFF3 / RFU, LMF1 / Fold change vs veh, LMF1 / RFU, IPO11 / Fold change vs veh, IPO11 / RFU, DFFB / Fold change vs veh, DFFB / RFU, FOXP1 / Fold change vs veh, FOXP1 / RFU, CARD8 / Fold change vs veh, CARD8 / RFU, STRN3 / Fold change vs veh, STRN3 / RFU, ADK / Fold change vs veh, ADK / RFU, RASSF2 / Fold change vs veh, RASSF2 / RFU, WIPF1 / Fold change vs veh, WIPF1 / RFU, LARP1B / Fold change vs veh, LARP1B / RFU, RASA1 / Fold change vs veh, RASA1 / RFU, RB1 / Fold change vs veh, RB1 / RFU, PPFIA1 / Fold change vs veh, PPFIA1 / RFU, MAT2A / Fold change vs veh, MAT2A / RFU, CCT5 / Fold change vs veh, CCT5 / RFU, WDR92 / Fold change vs veh, WDR92 / RFU, CUX1 / Fold change vs veh, CUX1 / RFU, TTC7A / Fold change vs veh, TTC7A / RFU, TMEM135 / Fold change vs veh, TMEM135 / RFU, DEPTOR / Fold change vs veh, DEPTOR / RFU, CPM / Fold change vs veh, CPM / RFU, DNAJB6 / Fold change vs veh, DNAJB6 / RFU, CACNA2D3 / Fold change vs veh, CACNA2D3 / RFU, DTX4 / Fold change vs veh, DTX4 / RFU, TFCP2 / Fold change vs veh, TFCP2 / RFU, GMCL1 /// GMCL1P1 / Fold change vs veh, GMCL1 /// GMCL1P1 / RFU, AEBP2 / Fold change vs veh, AEBP2 / RFU, SNHG1 /// SNORD22 /// SNORD25 /// SNORD26 /// SNORD27 /// SNORD28 /// SNORD29 /// SNORD31 / Fold change vs veh, SNHG1 /// SNORD22 /// SNORD25 /// SNORD26 /// SNORD27 /// SNORD28 /// SNORD29 /// SNORD31 / Fold change (Aza/veh), C12orf56 (ProbeSet 11735607_a_at) / Fold change (ACY-1035/veh), C12orf56 (ProbeSet 11735607_a_at) / Fold change (Aza/veh), FGFR1OP (ProbeSet 11751329_s_at) / Fold change (ACY-1035/veh), FGFR1OP (ProbeSet 11751329_s_at) / Fold change (Aza/veh), VPS36 (ProbeSet 11739960_a_at) / Fold change (ACY-1035/veh), VPS36 (ProbeSet 11739960_a_at) / RFU SYPL1 (11715823_x_at) / Fold change /veh SYPL1 (11715823_x_at) / RFU IGFBP7 (11715501_s_at) / Fold change /veh IGFBP7 (11715501_s_at) / RFU REEP3 (11722064_at) / Fold change /veh REEP3 (11722064_at) / RFU IGLL1 (11728026_x_at) / Fold change /veh IGLL1 (11728026_x_at): dose or concentration left out as unconfirmed
Settings: ProbeSet 11725902_s_at; LIST D

Structure (SMILES): Nc1ncn([C@@H]2O[C@H](CO)[C@@H](O)[C@H]2O)c(=O)n1 [azacitidine]
- Fold change vs veh, TMEM135: 0.57
